Experimental data from patent US4654370A, “Glyceryl valproates” (Abbott Laboratories, priority 1980, dated 1987).

How the values were obtained:
[1] = system: gastro-intestinal tract; settings: cited from earlier work
[2] = system: audiogenic seizures; experiment: Protective effects against audiogenic seizures in mice; format: in vivo; settings: oral; 800 mg./kg. valproic acid equivalent; 30 min after dosing; bell for one minute; groups of 10 mice
Procedure: The valproic acid equivalent of 800 mg./kg. of each compound was administered by oral intubation in a composition prepared as shown in Example 12 to groups of 10 mice. Thirty minutes after dosing, convulsions were produced by electrically activating a bell for one minute.

[3] = system: epileptic seizures; settings: stated as background; cited from earlier work
[4] = Absorption profiles and area-under-the-curve in beagle dog; format: in vivo; settings: blood, single oral dose 24.9 mg./kg. valproic acid equivalent
Procedure: Since it is possible that the new compounds are not absorbed as quickly as valproic acid itself, absorption profiles and area-under-the-curve (AUC) values were calculated for valproic acid, glyceride trivalproate and representatives of the current compounds. The phrase AUC values represents the total quantity of the compound which is absorbed by the blood during the time periods referred to in Table III expressed in mcg./ml. A beagle dog received a single oral dose of 24.9 mg./kg. valproic acid equivalent in a composition prepared as shown in Example 12. The blood concentrations are shown in Table III as mcg./ml. while the AUC values are expressed as hr.×mcg./ml.

[5] = Valproic acid blood plasma levels after oral intubation in mice; format: in vivo; settings: mouse, equivalent of 200 mg. valproic acid per animal, mean of 3-18 animals
Procedure: (§1) The compounds of the present invention were administered to mice and rats by oral intubation. A vehicle of 0.5% aqueous methylcellulose containing one drop of a polyethylene sorbitan monooleate was used to suspend the above compounds. In the case of Example 1, the compound was first ground in a tissue-homogenizer followed by mixing in a Waring blender. The results are shown in Table I expressed in mcg. of valproic acid per ml. of blood plasma at specified times.

[6] = Valproic acid blood plasma levels after oral intubation in rats; format: in vivo; settings: rat, equivalent of 200 mg. valproic acid per animal, mean of 3-18 animals
Procedure: as §1

SMILES | adverse side effects ([1]; reported by Meijer and Meinardi, 1975) | Percentage of Mice Exhibiting Seizures, Any Type [2] | Percentage of Mice Exhibiting Seizures, Tonic Extension [2] | therapeutic value [3] | concentration at 0.5 h ([4]; 0.5 hrs.) | concentration at 1 h ([4]; 1 hr.) | concentration at 2 h ([4]; 2 hrs.) | concentration at 4 h ([4]; 4 hrs.) | concentration at 6 h ([4]; 6 hrs.) | AUC at 8 h ([4]; 8 hrs.) | gastro-intestinal irritation in patients ([1]; patients using valproic acid) | concentration at 0.5 h ([5]; 0.5 hrs.) | concentration at 1.5 h ([5]; 1.5 hrs.) | concentration at 0.5 h ([6]; 0.5 hrs.) | concentration at 1.5 h ([6]; 1.5 hrs.)
CCCC(CCC)C(=O)OCC(COC(=O)C(CCC)CCC)OC(=O)C(CCC)CCC [Glycerol trivalproate] | no adverse side effects | 100% | 80% | substantially no therapeutic value |  |  |  |  |  |  |  |  |  |  | 
CCCC(CCC)C(=O)OCC(O)CO (racemic) [Example 6, 1-Valproyl-glycerol] |  | 50% | 10% |  |  |  |  |  |  |  |  |  |  |  | 
CCCC(CCC)C(=O)O [Valproic Acid, 2-propylpentanoic acid] |  | 50% | 10% |  | 65600 ng/mL | 40800 ng/mL | 9000 ng/mL | 2600 ng/mL | 1300 ng/mL | 82200 ng·h/mL | 9-16% | 134000 ng/mL | 72000 ng/mL | 84100 ng/mL | 27500 ng/mL
CCCC(CCC)C(=O)OC(COC(C)=O)COC(C)=O [Example 5, 1,3-Diacetyl-2-valproyl-glyceride] |  | 50% | 10% |  |  |  |  |  |  |  |  |  |  |  | 
